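Dose response: 5 concentrations. Exposure: 48 h. Format: 96-well plates. Endpoint: linear interpolation; highest concentration if not reached. GI50 marks 50% less growth. The concentration for full growth arrest is given as TGI.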
Assays:
Assay in all cases: inhibition of tumour cell growth, NCI panel, 48 h
EKVX NSCLC = system: EKVX NSCLC
HCT-116 colon = system: HCT-116 colon
KM12 colon = system: KM12 colon
NCI-H226 lung = system: NCI-H226 lung
OVCAR-5 ovarian = system: OVCAR-5 ovarian
OVCAR-8 ovarian = system: OVCAR-8 ovarian
SK-MEL-28 melanoma = system: SK-MEL-28 melanoma
SNB-75 CNS = system: SNB-75 CNS
UACC-257 melanoma = system: UACC-257 melanoma

Row | SMILES | TGI (EKVX NSCLC) [µM] | TGI (HCT-116 colon) [µM] | TGI (KM12 colon) [µM] | TGI (NCI-H226 lung) [µM] | TGI (OVCAR-5 ovarian) [µM] | TGI (OVCAR-8 ovarian) [µM] | TGI (SK-MEL-28 melanoma) [µM] | TGI (SNB-75 CNS) [µM] | TGI (UACC-257 melanoma) [µM] | GI50 (EKVX NSCLC) [nM] | GI50 (HCT-116 colon) [nM] | GI50 (KM12 colon) [nM] | GI50 (NCI-H226 lung) [nM] | GI50 (OVCAR-5 ovarian) [nM] | GI50 (OVCAR-8 ovarian) [µM] | GI50 (SK-MEL-28 melanoma) [nM] | GI50 (SNB-75 CNS) [nM] | GI50 (UACC-257 melanoma) [µM]
1 | COc1cc2c3c(c1OC)C(=O)C=C3N(S(=O)(=O)c1ccc(C)cc1)CC2 | > 100 | > 100 | > 100 | > 100 | > 100 | > 100 | > 100 | > 100 | > 100 | – | – | – | – | – | – | – | – | –
2 | CCCCCCCCCCOC(=O)c1cc[n+](C)cc1 | 30.5 | 36.6 | 31.3 | 32.7 | 26.8 | 31.4 | 31.3 | 34.3 | 34 | – | – | – | – | – | – | – | – | –
3 | O=C(NC(=O)c1cn(CCN2CCN(C(=O)NCCCCCCNC(=O)N3CCN(CCn4cc(C(=O)NC(=O)OCc5ccccc5)c(=O)[nH]c4=O)CC3)CC2)c(=O)[nH]c1=O)OCc1ccccc1 | > 100 | > 100 | – | – | > 100 | > 100 | > 100 | > 100 | > 100 | – | – | – | – | – | – | – | – | –
4 | CCN(CC)c1ccc2nc3ccc(N=Nc4ccc(O)cc4)cc3[n+](-c3ccccc3)c2c1 | 64.8 | 10.6 | 16.4 | 23.6 | 73.7 | > 100 | 21.5 | 21.9 | 9.78 | 3590 | 2660 | 3700 | 11400 | 20800 | 7.42 | 5880 | 10000 | 3.11
5 | COc1cc(CN(c2ccc(C)cc2)C2OC(=O)c3ccccc32)cc(OC)c1OC (centres undefined) | > 100 | > 100 | > 100 | > 19.7 | > 100 | – | > 100 | > 100 | > 100 | 647 | 501 | 445 | 507 | 1580 | – | 855 | 285 | 3.41
6 | COc1cccc(NC(=O)c2sc3nc4c(cc3c2N)C(O)CCC4)c1 (centres undefined) | – | > 100 | > 100 | > 100 | > 100 | > 100 | > 100 | 24.7 | > 100 | – | 117 | 111 | 669 | 521 | 0.377 | 787 | 170 | 28.2
7 | CC1(C)C(=O)C(=Cc2ccco2)C1=O | > 100 | > 100 | > 100 | > 100 | > 100 | > 100 | > 100 | > 100 | > 100 | – | – | – | – | – | – | – | – | –
8 | Cc1ccccc1N=Nc1c(-c2ccccc2)nn(C(=O)CC(=O)Nc2cccc(Cl)c2)c1-c1ccccc1 | > 31.6 | 17.8 | – | > 31.6 | > 31.6 | > 31.6 | > 31.6 | > 31.6 | 2.58 | – | – | – | – | – | – | – | – | –
9 | COc1ccc2c(c1)CCc1c(CO)c(COC(=O)NC(C)C)n(C)c1-2 | > 100 | 11.6 | 28.2 | 14.6 | > 100 | 21.2 | 28.6 | > 27.3 | 27.1 | – | – | – | – | – | – | – | – | –
10 | COC(=O)N/N=C(\C)C(CN(C)C)C(c1ccccc1)c1c(O)c2ccccc2oc1=O (centres undefined) | > 100 | > 100 | > 100 | > 100 | > 100 | > 100 | > 100 | > 100 | > 100 | – | – | – | – | – | – | – | – | –
11 | COC(=O)/C(=C/c1ccc(OC)cc1)C(C(=O)O)=C1CCCCC1 | > 100 | > 100 | > 100 | > 100 | > 100 | > 100 | – | > 100 | > 100 | – | – | – | – | – | – | – | – | –
12 | COc1ccc2c(c1)[n+](=O)c(C(=O)CC(=O)C(=O)Nc1cccc(C)c1C)c(C)n2[O-] | > 100 | > 100 | > 100 | > 100 | > 100 | > 100 | > 100 | – | > 100 | – | – | – | – | – | – | – | – | –
13 | CC(=O)OC1C(O[C@H]2CC[C@]34O[C@]35CC[C@]3(C)C(C6(C)CC[C@@H](C(C)(C)O)O6)[C@@H](O)CC3(C)[C@@H]5CC(OC3OC(CO)C(O)C(O)C3O)C4C2(C)C)OCC(O)C1O (some centres undefined) | > 100 | > 100 | > 100 | > 100 | > 100 | > 100 | > 100 | > 100 | > 100 | – | – | – | – | – | – | – | – | –
14 | COc1cccc2nc3c(C(=O)NCCN(C)C)cccc3nc12 | 40.5 | 37 | 36.9 | 20.2 | 42.4 | > 88 | 28.8 | > 47.9 | 27.1 | – | – | – | – | – | – | – | – | –
